Data published in patent publication US20130303532A1, “IMIDAZOPYRAZINES FOR USE AS MPS-1 AND TKK INHIBITORS IN THE TREATMENT HYPERPROLIFERATIVE DISORDERS” (BAYER INTELLECTUAL PROPERTY GmbH, priority 2010, published 2013).
Where two headings read alike, the source gives them in different places.

Molecular target: T1, human kinase Mps-1 (Homo sapiens, UniProt P33981)
T1 construct: N-terminally GST-tagged human full length recombinant Mps-1 kinase; GST (N); purchased Invitrogen, Karslruhe, Germany PV4071
T1 sequence (P33981 1-857): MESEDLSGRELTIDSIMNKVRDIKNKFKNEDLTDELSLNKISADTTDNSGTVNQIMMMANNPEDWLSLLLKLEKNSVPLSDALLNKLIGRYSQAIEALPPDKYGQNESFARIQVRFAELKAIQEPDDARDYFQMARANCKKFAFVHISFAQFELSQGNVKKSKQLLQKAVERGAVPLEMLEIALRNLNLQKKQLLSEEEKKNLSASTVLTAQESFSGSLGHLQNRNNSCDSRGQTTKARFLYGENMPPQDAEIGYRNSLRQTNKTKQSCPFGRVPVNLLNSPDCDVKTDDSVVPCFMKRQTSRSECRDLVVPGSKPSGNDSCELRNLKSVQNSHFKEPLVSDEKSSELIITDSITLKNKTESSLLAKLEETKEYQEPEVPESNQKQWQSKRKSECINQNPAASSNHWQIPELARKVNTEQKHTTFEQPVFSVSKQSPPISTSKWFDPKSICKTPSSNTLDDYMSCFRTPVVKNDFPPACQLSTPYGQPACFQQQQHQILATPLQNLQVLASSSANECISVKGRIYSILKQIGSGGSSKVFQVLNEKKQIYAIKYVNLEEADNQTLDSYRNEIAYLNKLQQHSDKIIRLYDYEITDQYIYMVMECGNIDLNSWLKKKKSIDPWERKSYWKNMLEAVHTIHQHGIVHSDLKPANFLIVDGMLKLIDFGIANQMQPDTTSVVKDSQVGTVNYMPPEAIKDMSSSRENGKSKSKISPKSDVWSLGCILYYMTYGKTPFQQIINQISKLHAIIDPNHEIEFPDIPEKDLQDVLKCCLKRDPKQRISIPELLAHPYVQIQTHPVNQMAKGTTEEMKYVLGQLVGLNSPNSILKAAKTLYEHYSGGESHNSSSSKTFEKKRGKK
Assay: Mps-1 kinase assay (TR-FRET)
Assay type: biochemical
Details: N-terminally GST-tagged human full length recombinant Mps-1, 10 μM ATP, 1 μM biotinylated peptide substrate, 60 min at 22° C.

Compound	IC50 (read-out: Mps1 IC50) [nM]	IC50 (Mps1 IC50 [nM]) [nM]
2-chloro-N-cyclopropyl-4- {8-[(2- sulfamoylethyl)amino]imi- dazo[1,2-a]pyrazin-3- yl}benzamide [Example 7-67]	250	
4-{8-[(3-amino-3- oxopropyl)amino]imi- dazo[1,2-a]pyrazin-3-yl}-N- cyclopropylbenzamide [Example 7-25]	1190	
Cc1cc(C(=O)NC2CC2)ccc1-c1cnc2c(NCC(C)C)nccn12 [Example 1-1, N-cyclopropyl-3-methyl-4-{8-[(2-methylpropyl)amino]imidazo[1,2-a]pyrazin-3-yl}benzamide]	52.4	
Cc1cc(-c2cnc3c(NCC(C)C)nccn23)cc(C)c1C(=O)NC1CC1 [Example 1-2, N-cyclopropyl-2,6-dimethyl-4-{8-[(2-methylpropyl)amino]imi-dazo[1,2-a]pyrazin-3-yl}benzamide]		1230
CC(C)CNc1nccn2c(-c3ccc(C(=O)NC4CC4)cc3F)cnc12 [Example 1-3, N-cyclopropyl-3-fluoro-4-{8-[(2-methylpropyl)amino]imi-dazo[1,2-a]pyrazin-3-yl}benzamide]		9
CC(C)CNc1nccn2c(-c3ccc(C(=O)NC4CC4)c(F)c3)cnc12 [Example 1-4, N-cyclopropyl-2-fluoro-4-{8-[(2-methylpropyl)amino]imi-dazo[1,2-a]pyrazin-3-yl}benzamide]		34
O=C(NC1CC1)c1ccc(-c2cnc3c(NCCCO)nccn23)cc1 [Example 3-1, N-cyclopropyl-4-[8-[(3-hydroxypropyl)amino]imidazo[1,2-a]pyrazin-3-yl]benzamide]	54.5	
CC(C)(O)CNc1nccn2c(-c3ccc(C(=O)NC4CC4)cc3)cnc12 [Example 3-2, N-cyclopropyl-4-{8-[(2-hydroxy-2-methylpropyl)amino]imidazo[1,2-a]pyrazin-3-yl}benzamide]	92.7	
NCCCNc1nccn2c(-c3ccc(C(=O)NC4CC4)c(Cl)c3)cnc12 [Example 3-3, 4-{8-[(3-Aminopropyl)amino]imidazo[1,2-a]pyrazin-3-yl}-2-chloro-N-cyclopropylbenzamide]	2500	
COc1cc(C(=O)NC2CC2)ccc1-c1cnc2c(NCCCN)nccn12 [Example 3-4, 4-{8-[(3-Aminopropyl)amino]imidazo[1,2-a]pyrazin-3-yl}-N-cyclopropyl-3-methoxybenzamide]	421	
CS(=O)(=O)CCNc1nccn2c(-c3ccc(C(=O)NC4CC4)cc3)cnc12 [Example 4-1, N-cyclopropyl-4-(8-{[2-(methylsulfonyl)ethyl]amino}imidazo[1,2-a]pyrazin-3-yl)benzamide]	17.2	
CS(=O)(=O)CCCNc1nccn2c(-c3ccc(C(=O)NC4CC4)cc3)cnc12 [Example 4-2, N-cyclopropyl-4-(8-{[3-(methylsulfonyl)propyl]amino}imidazo[1,2-a]pyrazin-3-yl)benzamide]	87.4	
O=C(NC1CC1)c1ccc(-c2cnc3c(NCc4ccccc4F)nccn23)cc1 [Example 4-3, N-cyclopropyl-4-{8-[(2-fluorobenzyl)amino]imi-dazo[1,2-a]pyrazin-3-yl}benzamide]		11
O=C(NC1CC1)c1ccc(-c2cnc3c(NCc4ccn[nH]4)nccn23)cc1 [Example 4-4, N-cyclopropyl-4-{8-[(1H-pyrazol-5-ylmethyl)amino]imi-dazo[1,2-a]pyrazin-3-yl}benzamide]		69.8
COC(=O)CCCNc1nccn2c(-c3ccc(C(=O)NC4CC4)cc3)cnc12 [Example 4-5, methyl 4-({3-[4-(cyclopropylcarbamoyl)phen-yl]imidazo[1,2-a]pyrazin-8-yl}amino)butanoate]	103	
COC(=O)CCNc1nccn2c(-c3ccc(C(=O)NC4CC4)cc3)cnc12 [Example 4-6, methyl N-{3-[4-(cyclopropylcarbamoyl)phen-yl]imidazo[1,2-a]pyrazin-8-yl}-beta-alaninate]	74.9	
CCCCNc1nccn2c(-c3ccc(C(=O)NC4CC4)cc3)cnc12 [Example 4-7, 4-[8-(butylamino)imidazo[1,2-a]pyrazin-3-yl]-N-cyclopropylbenzamide]	37.2	
